Test results reported in US5670521A, “Reversal of multi-drug resistance by triphenyl-azacycloalkane derivatives” (Merrell Pharmaceuticals Inc., priority 1996, dated 1997).

Test system: KBV1 cells
Conditions: KBV1 vs wild type KB cells
Method: The ability of compounds of this invention to reverse multi drug resistance can be determined using standard test procedures. The ability of the test compounds to inhibit the growth of multidrug resistant human epidermoid carcinoma (KBV1) cells in the presence of both Vinblastine and the compound was determined.

Compound: CC[C@]1(O)C[C@@H]2CN(CCc3c([nH]c4ccccc34)[C@@](C(=O)OC)(c3cc4c(cc3OC)N(C)[C@H]3[C@@](O)(C(=O)OC)[C@H](OC(C)=O)[C@]5(CC)C=CCN6CC[C@]43[C@@H]65)C2)C1 [Vinblastine]
- resistance to vinblastine compared to wild type KB cells: at least 1,000 times
